Literature values as cited in US20240189323A1, “PREPARATION FOR ETHINYLESTRADIOL-CYCLODEXTRIN COMPLEX AND USE THEREOF” (NATIONAL RESEARCH INSTITUTE FOR FAMILY PLANNING, priority 2022, published 2024).

Settings: background description

- solubility in water: almost insoluble in water
SMILES: C#C[C@]1(O)CC[C@H]2[C@@H]3CCc4cc(O)ccc4[C@H]3CC[C@@]21C [ethinylestradiol, 3-hydroxy-19-nor-17α-pregna-1,3,5(10)-trien-20-yn-17-ol]
